From ChEMBL document CHEMBL1782004, “Pyrimidine nucleotides with 4-alkyloxyimino and terminal tetraphosphate δ-ester modifications as selective agonists of the P2Y(4) receptor” (J Med Chem, 2011) come the findings set out here.

In general, EC50 refers to the concentration at which the effect is half-maximal. The low end stands for an effect from little substance, the high end for a need for much substance.

The test concerns the target P2Y purinoceptor 4 (Homo sapiens, UniProt P51582). Description: Agonist activity at human P2Y4. It is filed as functional.

Sequence of P2Y purinoceptor 4 (P51582 whole entry): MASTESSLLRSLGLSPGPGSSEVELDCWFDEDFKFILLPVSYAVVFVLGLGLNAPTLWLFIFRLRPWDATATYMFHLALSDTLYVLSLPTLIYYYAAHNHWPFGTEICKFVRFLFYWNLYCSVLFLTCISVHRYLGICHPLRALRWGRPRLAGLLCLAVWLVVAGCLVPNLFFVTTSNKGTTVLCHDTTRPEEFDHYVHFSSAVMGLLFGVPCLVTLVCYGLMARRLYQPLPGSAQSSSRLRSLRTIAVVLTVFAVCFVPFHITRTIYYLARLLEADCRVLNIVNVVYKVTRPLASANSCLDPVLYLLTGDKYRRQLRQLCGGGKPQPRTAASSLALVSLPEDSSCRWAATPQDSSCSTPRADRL

Regarding `O=c1ccn([C@@H]2O[C@H](COP(=O)(O)OP(=O)(O)OP(=O)(O)OP(=O)(O)OC[C@H]3O[C@@H](n4ccc(=O)[nH]c4=O)[C@H](O)[C@@H]3O)[C@@H](O)[C@H]2O)c(=O)[nH]1` [DIQUAFOSOL TETRASODIUM], the response was half-maximal at 870 nM (EC50).
